The record followed here is patent publication US10111874B2, “Combination therapies for treatment of cancer” (Araxes Pharma LLC, priority 2014, dated 2018).

The target of the assay is T1, KRAS G12C 1-169, his-tagged protein, GDP-loaded (Homo sapiens, UniProt P01116, G12C).
T1 construct: KRAS G12C 1-169, his-tagged protein, GDP-loaded
Kind of assay: Biochemical assay: covalent binding to KRAS G12C analyzed by mass spectrometry. Also: test concentration or dose not given here.

Where [1] appears, read: compounds 48-246, measured at 2 h.
[2] abbreviates: compounds 247-342, measured at 30 min.

T1 sequence (P01116 1-169 isoform P01116-2 G12C): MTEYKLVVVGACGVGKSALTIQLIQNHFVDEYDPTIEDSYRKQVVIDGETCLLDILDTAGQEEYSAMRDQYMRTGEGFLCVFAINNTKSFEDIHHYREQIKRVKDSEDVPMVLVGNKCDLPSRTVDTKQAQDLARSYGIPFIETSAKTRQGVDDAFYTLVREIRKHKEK

As to `C=CC(=O)N1CCN(c2ncnc3cc(Cl)c(-c4cc(Cl)ccc4Cl)cc23)CC1` [Compound I-9, 1-(4-(7-chloro-6-(2,5-dichlorophenyl)quinazolin-4-yl)piperazain-1-yl)prop-2-en-1-one], the Binding % result (compounds 1-47, measured at 24 h) was “+++ (+++indicates binding activity greater than 50% and up to 75%)”.

Take `C=CC(=O)N1CCN(c2ncnc3ccc(-c4ccc(Cl)cc4)cc23)CC1` [Compound I-71, 1-(4-(6-(4-chlorophenyl)quinazolin-4-yl)piperazin-1-yl)prop-2-en-1-one]: the Binding % entry under setting [1] is listed as “+ (+indicates binding activity from 5% to 25%)”.

Take `CC(C)/C=C(\C#N)C(=O)N1CCN(c2ncnc3c(F)c(-c4c(O)cccc4F)c(Cl)cc23)CC1` [Compound I-282, (E)-2-(4-(6-chloro-8-fluoro-7-(2-fluoro-6-hydroxyphenyl)quinazolin-4-yl)piperazine-1-carbonyl)-4-methylpent-2-enenitrile]: the Binding % result under setting [2] is “+++ (+++indicates binding activity greater than 50% and up to 75%)”.

For the compound `C=CC(=O)N1CCN(c2nc(-c3cn[nH]c3)nc3c(F)c(-c4c(C)ccc5[nH]ncc45)c(Cl)cc23)CC1` [Compound 304, 1-(4-(6-chloro-8-fluoro-7-(5-methyl-1H-indazol-4-yl)-2-(1H-pyrazol-4-yl)quinazolin-4-yl)piperazin-1-yl)prop-2-en-1-one], the Binding % result under setting [2] was “++ (++indicates binding activity greater than 25% and up to 50%)”.

`C=CC(=O)N1CCN(c2ncnc3cc(-c4ccccc4C(N)=O)c(C(F)(F)F)cc23)CC1` [Compound I-211, 2-(4-(4-acryloylpiperazin-1-yl)-6-(trifluoromethyl)quinazolin-7-yl)benzamide]: under setting [1], the Binding % result was “+ (+indicates binding activity from 5% to 25%)”.

On to `C=CC(=O)N1CCN(c2ncnc3cc(-c4c(C)ccc5[nH]ncc45)c(C(F)(F)F)cc23)CC1` [Compound I-237, 1-(4-(7-(5-methyl-1H-indazol-4-yl)-6-(trifluoromethyl)quinazolin-4-yl)piperazin-1-yl)prop-2-en-1-one], for which the Binding % entry under setting [1] is “++++ (++++indicates binding activity greater than 75%)”.

Turning to `C=CC(=O)N1CCN(c2ncnc3cc(-c4ccc(F)cc4C(F)(F)F)c(Cl)cc23)CC1` [Compound I-119, 1-(4-(6-chloro-7-(4-fluoro-2-(trifluoromethyl)phenyl)quinazolin-4-yl)piperazin-1-yl)prop-2-en-1-one], the Binding % entry under setting [1] is “+++ (+++indicates binding activity greater than 50% and up to 75%)”.

Take `C=CC(=O)N1CCN(c2ncnc3cc(-c4cccc5c4OCCO5)c(Cl)cc23)CC1` [Compound I-201, 1-(4-(6-chloro-7-(2,3-dihydrobenzo[d][1,4]dioxol-5-yl)quinazolin-4-yl)piperazin-1-yl)prop-2-en-1-one]: the Binding % result under setting [1] was “+++ (+++indicates binding activity greater than 50% and up to 75%)”.

`C=CC(=O)N1CCN(c2nc(OCCN(C)C)nc3c(F)c(-c4c(C)ccc5[nH]ncc45)c(Cl)cc23)CC1` [Compound 323, 1-(4-(6-chloro-2-(2-(dimethylamino)ethoxy)-8-fluoro-7-(5-methyl-1H-indazol-4-yl)quinazolin-4-yl)piperazin-1-yl)prop-2-en-1-one]: the Binding % result under setting [2] was “+++ (+++indicates binding activity greater than 50% and up to 75%)”.

With `C=CC(=O)N1CC(N2CCN(C(=O)CNc3cc(OC)c(Cl)cc3Cl)CC2)C1` [II-5, 1-(3-(4-(2-(2,4-dichloro-5-methoxyphenyl-amino)acetyl)-piperazin-1-yl)azetidin-1-yl)prop-2-en-1-one], the Binding % result (determined at 24 hrs) is on record as “+ (+indicates binding activity from 5% to 15%)”.

With `C=CC(=O)N1CCN(c2ncnc3cc(-c4c(F)cccc4C#N)c(Cl)cc23)CC1` [Compound I-192, 2-(4-(4-acryloylpiperazin-1-yl)-6-chloroquinazolin-7-yl)-3-fluorobenzonitrile], under setting [1], the Binding % entry was “++ (++indicates binding activity greater than 25% and up to 50%)”.

Consider `C=CC(=O)N1CCN(c2ncnc3cc(-c4ccccc4CC)c(Cl)cc23)CC1CC#N` (centres unmarked) [Compound I-107, 2-(1-acryloyl-4-(6-chloro-7-(2-ethylphenyl)quinazolin-4-yl)piperazin-2-yl)acetonitrile], for which, under setting [1], the Binding % result is “++++ (++++indicates binding activity greater than 75%)”.

As to `CC(C)/C=C(\C#N)C(=O)N1CCN(c2ncnc3cc(-c4ccccc4F)c(Cl)cc23)CC1` [Compound I-241, (E)-2-(4-(6-chloro-7-(2-fluorophenyl)quinazolin-4-yl)piperazine-1-carbonyl)-4-methylpent-2-enenitrile], the Binding % entry under setting [1] is “+ (+indicates binding activity from 5% to 25%)”.

Consider `C=CC(=O)N1CCN(c2ncnc3cc(-c4cccc(C#N)c4)c(Cl)cc23)CC1` [Compound I-130, 3-(4-(4-acryloylpiperazin-1-yl)-6-chloroquinazolin-7-yl)benzonitrile], for which the Binding % entry under setting [1] is “+ (+indicates binding activity from 5% to 25%)”.

As to `C=CC(=O)N1CC(N2CCN(C(=O)CNc3cc(Cl)c(Br)cc3O)CC2)C1` [II-28, 1-(3-(4-(2-(4-bromo-5-chloro-2-hydroxyphenylamino)-cetyl)piperazin-1-yl)azetidin-1-yl)prop-2-en-1-one], the Binding % result (determined at 24 hrs) was “+++ (+++indicates binding activity greater than 25% and up to 50%)”.

For the compound `C=CC(=O)N1CCN(c2ncnc3cc(-c4c(C)ccc5[nH]ncc45)c(Cl)cc23)CC1` [Compound I-140, 1-(4-(6-chloro-7-(5-methyl-1H-indazol-4-yl)quinazolin-4-yl)piperazin-1-yl)prop-2-en-1-one], under setting [1], the Binding % entry was “+++ (+++indicates binding activity greater than 50% and up to 75%)”.

Consider `C=CC(=O)N1CCN(c2nc(NC)nc3c(F)c(-c4c(C)ccc5[nH]ncc45)c(Cl)cc23)CC1` [Compound I-257, 1-(4-(6-chloro-8-fluoro-7-(5-methyl-1H-indazol-4-yl)-2-(methylamino)quinazolin-4-yl)piperazin-1-yl)prop-2-en-1-one], for which the Binding % result under setting [2] is on record as “++++ (++++indicates binding activity greater than 75%)”.

Regarding `C=CC(=O)N1CC(N2CCN(C(=O)Cc3c[nH]c4ccccc34)CC2)C1` [II-25, 1-(3-(4-(2-(1H-indol-3-yl)acetyl)piperazin-1-yl)azetidin-1-yl)prop-2-en-1-one], under “determined at 24 hrs”, the Binding % result is given as “+ (+indicates binding activity from 5% to 15%)”.

Take `C=CC(=O)N1CCN(c2ncnc3cc(-c4ccccc4C4(C#N)CC4)c(Cl)cc23)CC1` [Compound I-175, 1-(2-(4-(4-acryloylpiperazin-1-yl)-6-chloroquinazolin-7-yl)phenyl)cyclopropanecarbonitrile]: under setting [1], the Binding % entry was “+++ (+++indicates binding activity greater than 50% and up to 75%)”.

In the case of `C=CC(=O)N1CCN(c2ncnc3cc(-c4ccccc4O)c(Cl)cc23)CC1C#N` (centres unmarked) [Compound I-146, 1-acryloyl-4-(6-chloro-7-(2-hydroxyphenyl)quinazolin-4-yl)piperazine-2-carbonitrile], the Binding % entry under setting [1] is on record as “++++ (++++indicates binding activity greater than 75%)”.

With `C=CC(=O)N1CCN(c2c(C#N)cnc3cc(-c4c(C)ccc5[nH]ncc45)c(Cl)cc23)CC1` [Compound I-270, 4-(4-acryloylpiperazin-1-yl)-6-chloro-7-(5-methyl-1H-indazol-4-yl)quinoline-3-carbonitrile], the Binding % entry under setting [2] was “+++ (+++indicates binding activity greater than 50% and up to 75%)”.

For the compound `C=CC(=O)N1CCN(c2nc(C)nc3cc(Cl)c(-c4ccc(Cl)cc4)cc23)CC1C#N` (centres unmarked) [Compound I-56, 1-acryloyl-4-(7-chloro-6-(4-chlorophenyl)-2-methylquinazolin-4-yl)piperazine-2-carbonitrile], the Binding % entry under setting [1] is given as “++++ (++++indicates binding activity greater than 75%)”.

`C=CC(=O)N1CCN(c2ncnc3cc(-c4ccc(F)cc4F)c(Cl)cc23)CC1` [Compound I-112, 1-(4-(6-chloro-7-(2,4-difluorophenyl)quinazolin-4-yl)piperazin-1-yl)prop-2-en-1-one]: under setting [1], the Binding % result is “+++ (+++indicates binding activity greater than 50% and up to 75%)”.

Regarding `C=CC(=O)N1CCN(c2ncnc3cc(-c4ccccc4-c4nccs4)c(Cl)cc23)CC1` [Compound I-186, 1-(4-(6-chloro-7-(2-(thiazol-2-yl)phenyl)quinazolin-4-yl)piperazin-1-yl)prop-2-en-1-one], the Binding % result under setting [1] was “+++ (+++indicates binding activity greater than 50% and up to 75%)”.

In the case of `CN(C)C/C=C/C(=O)N1CCN(c2ncnc3cc(-c4ccccc4F)c(Cl)cc23)CC1` [Compound I-228, (E)0-1-(4-(6-chloro-7-(2-fluorophenyl)quinazolin-4-yl)piperazin-1-yl)-4-(dimethylamino)but-2-en-1-one], the Binding % result under setting [1] is recorded as “+ (+indicates binding activity from 5% to 25%)”.

With `C=CC(=O)N1CCN(c2ncnc3cc(-c4cccc(CC)c4)c(Cl)cc23)CC1` [Compound I-79, 1-(4-(6-chloro-7-(3-ethylphenyl)quinazolin-4-yl)piperazin-1-yl)prop-2-en-1-one], under setting [1], the Binding % entry was “+ (+indicates binding activity from 5% to 25%)”.

As to `C=CC(=O)N1CC(N2CCN(C(=O)CNc3cc(Cl)c(Cl)cc3C(F)(F)F)CC2)C1` [II-26, 1-(3-(4-(2-(4,5-dichloro-2-(trifluoromethyl)-phenylamino)acetyl)-piperazin-1-yl)azetidin-1-yl)prop-2-en-1-one], the Binding % entry (determined at 24 hrs) is “+ (+indicates binding activity from 5% to 15%)”.

For `C=CC(=O)N1CCN(c2c(C#N)cnc3c(F)c(-c4cc(O)cc5ccccc45)c(Cl)cc23)CC1` [Compound I-291, 4-(4-acryloylpiperazin-1-yl)-6-chloro-8-fluoro-7-(3-hydroxynaphthalen-1-yl)quinoline-3-carbonitrile], the Binding % result under setting [2] is listed as “++++ (++++indicates binding activity greater than 75%)”.

Take `C=CC(=O)N1CCN(c2ncnc3cc(-c4ccccc4)c(Cl)cc23)CC1C(N)=O` (centres unmarked) [Compound I-104, 1-acryloyl-4-(6-chloro-7-phenylquinazolin-4-yl)piperazine-2-carboxamide]: the Binding % result under setting [1] is “+++ (+++indicates binding activity greater than 50% and up to 75%)”.
